Read-outs that look alike come from different tables or passages of the source.
Experiments:
[1] = test system: M481, M487 and M610 melanoma cells carrying BRAF V600E mutations; format: in vivo, NSG mice
Protocol: M481, M487 and M610 melanoma cells carrying BRAF V600E mutations were implanted in s.c. tissue on right flanks of NSG mice. When tumors became palpable, mice were randomized to four different treatments. […] Control mice received vehicle only (200 μl 0.5% promethylcellulose, 0.2% Tween80 and 5% DMSO per day). Tumors were measured every 2-3 days with calipers.
In these experiments metastatic melanoma cells were injected subcutaneously in the right flanks of immunocompromised NSG mice. When tumors became palpable, mice were randomized to four different treatments. […] Control mice received vehicle only (200 μl 0.5% promethylcellulose, 0.2% Tween80 and 5% DMSO per day). Tumors were measured every 2-3 days with calipers.

[2] = test system: M481 metastatic melanoma cells; assay: M481 melanoma xenograft tumor growth in NSG mice (i.p. agents, PLX 4720 chow); format: in vivo
Protocol: M481 metastatic melanoma cells were implanted in s.c. tissue on right flanks of NSG mice. […] For PLX4720 treatment mice were switched to either a chow diet containing 417 mg/kg PLX4720 or the control chow containing no compound. Tumors were measured every 2-3 day with calipers. Mean±SD is reported (* P<0.05, *** P<0.0005, ns: not significant; two-tailed Student's t test). FIG. 1B, Representative bioluminescence images of melanomas at day 14.
M481 metastatic melanoma cells were implanted in s.c. tissue on right flanks of NSG mice. When tumors became palpable mice were i.p. injected with RO 31-8220 (3 mg/kg) or DMSO. […] Tumors were measured every 2-3 day with calipers. […]
M481 metastatic melanoma cells were implanted in s.c. tissue on right flanks of NSG mice. […] Tumors were measured every 2-3 day with calipers. […]
Transplanting melanoma cells. After sorting, cells were counted and resuspended in staining medium (L15 medium containing 1 mg/ml BSA, 1% penicillin/streptomycin and 10 mM HEPES [pH7.4]) with 25% high protein Matrigel (product 354248; BD Biosciences). […]
Bioluminescence imaging (BLI). Mice were injected with 100 luciferase-GFP+ cells on the right flank and monitored until tumor diameters approached 20 mm, at which point they were imaged along with an uninjected control mouse on an IVIS Imaging System 200 Series (Calliper Life Sciences) using Living Image software. […]

[3] = target: MSK1 (Homo sapiens, UniProt O75582); settings: cited from earlier work
[4] = test system: MAPK; settings: rat adipocytes and L6 myotubes; cited from earlier work
[5] = test system: ERK2; settings: rat adipocytes and L6 myotubes; cited from earlier work
[6] = test system: JNK; settings: rat adipocytes and L6 myotubes; cited from earlier work
[7] = test system: PKGα; settings: cited from earlier work
[8] = test system: glycogen synthase; settings: rat adipocytes and L6 myotubes; cited from earlier work

MSK1, sequence (O75582 whole entry, species assumed): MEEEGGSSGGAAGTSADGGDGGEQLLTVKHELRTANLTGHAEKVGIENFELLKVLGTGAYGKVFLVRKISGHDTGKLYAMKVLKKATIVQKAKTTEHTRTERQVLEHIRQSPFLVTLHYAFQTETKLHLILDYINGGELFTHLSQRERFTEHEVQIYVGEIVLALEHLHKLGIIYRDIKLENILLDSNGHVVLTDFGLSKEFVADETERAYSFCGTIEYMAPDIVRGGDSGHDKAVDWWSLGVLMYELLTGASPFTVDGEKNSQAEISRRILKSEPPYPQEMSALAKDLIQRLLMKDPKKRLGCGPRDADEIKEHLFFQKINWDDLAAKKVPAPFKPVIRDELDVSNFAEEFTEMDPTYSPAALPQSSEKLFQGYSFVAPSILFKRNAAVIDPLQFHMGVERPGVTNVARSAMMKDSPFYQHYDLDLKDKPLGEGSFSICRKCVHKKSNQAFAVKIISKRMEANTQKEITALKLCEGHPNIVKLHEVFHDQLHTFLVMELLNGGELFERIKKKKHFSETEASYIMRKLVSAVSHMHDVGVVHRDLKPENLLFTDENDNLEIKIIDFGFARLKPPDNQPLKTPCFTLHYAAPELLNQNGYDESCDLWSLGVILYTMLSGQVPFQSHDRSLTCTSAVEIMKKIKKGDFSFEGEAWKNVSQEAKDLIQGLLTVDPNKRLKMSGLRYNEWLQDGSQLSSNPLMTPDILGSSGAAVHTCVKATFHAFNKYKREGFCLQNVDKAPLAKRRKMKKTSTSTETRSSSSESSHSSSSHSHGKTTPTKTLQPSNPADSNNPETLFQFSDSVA

CCCS(=O)(=O)Nc1ccc(F)c(C(=O)c2c[nH]c3ncc(Cl)cc23)c1F [PLX 4720]
growth of human melanoma xenografts ([1]; PLX4720 20 mg/kg/day by oral gavage alone): slowed the growth

Cn1cc(C2=C(c3cn(CCCSC(=N)N)c4ccccc34)C(=O)NC2=O)c2ccccc21 [RO 31-8220]
in vivo tumor growth ([2]; RO 31-8220 3 mg/kg i.p. alone): inhibited the growth of a melanoma as well as the BRAF inhibitor (PLX 4720)
IC50 [3]: 8 nM
effect on MAPK [4]: inhibits
effect on ERK2 [5]: inhibits
effect on JNK [6]: Activates
IC50 [7]: 33 nM
effect on glycogen synthase [8]: Activates

C[C@H]1O[C@@H](O[C@H]2[C@@H](O)C[C@H](O[C@H]3[C@@H](O)C[C@H](O[C@H]4CC[C@@]5(C)[C@H](CC[C@@H]6[C@@H]5CC[C@]5(C)[C@@H](C7=CC(=O)OC7)CC[C@]65O)C4)O[C@@H]3C)O[C@@H]2C)C[C@H](O)[C@@H]1O [digitoxin]
in vivo tumor growth ([2]; digitoxin 0.5 mg/kg i.p. alone, s.c. xenograft, calipers every 2-3 day): inhibited the growth of a melanoma better than BRAF inhibitor (PLX 4720)
growth of human melanoma xenografts ([1]; digitoxin 0.5 mg/kg/day by oral gavage alone): slowed the growth

Source: patent publication US9561245B2, “Combination treatments for melanoma” (priority 2012, dated 2017)
